According to paper PMC4961458 (eLife, 2016):

Legend:
PR-A = biological target: T1, PR-A (Homo sapiens, UniProt P06401); test: PR-A transcriptional reporter assay, agonist mode (HEPG2 cells); format: cell-based; design: subcloning full-length PRa into pCMX; expressed in transfected cells; host or cells: HEPG2; conditions: % of maximal R5020-stimulated activity
T1 sequence (P06401 1-769 isoform P06401-2): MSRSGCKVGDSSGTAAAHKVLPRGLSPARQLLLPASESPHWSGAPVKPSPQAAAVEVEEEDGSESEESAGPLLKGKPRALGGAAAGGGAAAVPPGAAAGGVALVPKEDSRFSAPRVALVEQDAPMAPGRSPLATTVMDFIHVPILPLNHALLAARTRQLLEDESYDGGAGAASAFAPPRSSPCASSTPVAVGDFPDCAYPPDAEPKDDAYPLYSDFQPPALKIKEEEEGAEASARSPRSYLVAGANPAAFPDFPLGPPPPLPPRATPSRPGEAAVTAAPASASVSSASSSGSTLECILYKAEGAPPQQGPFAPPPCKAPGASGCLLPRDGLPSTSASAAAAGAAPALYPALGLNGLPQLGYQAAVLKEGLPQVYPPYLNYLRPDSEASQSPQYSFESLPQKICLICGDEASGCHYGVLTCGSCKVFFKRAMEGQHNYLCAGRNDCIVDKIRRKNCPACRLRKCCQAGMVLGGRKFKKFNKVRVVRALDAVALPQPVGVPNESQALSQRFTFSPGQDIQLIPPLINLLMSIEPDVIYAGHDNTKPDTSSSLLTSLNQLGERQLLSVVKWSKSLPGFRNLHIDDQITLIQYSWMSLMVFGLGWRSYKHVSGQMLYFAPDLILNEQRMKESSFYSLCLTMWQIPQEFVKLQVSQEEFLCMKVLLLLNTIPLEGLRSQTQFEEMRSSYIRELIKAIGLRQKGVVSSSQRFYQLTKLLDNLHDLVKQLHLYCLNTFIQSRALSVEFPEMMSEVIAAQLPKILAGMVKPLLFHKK
Protocol: Transcriptional assays were performed by seeding 100 μL of cells at a density of 250,000 cells/mL into 96-well cell culture plates in RPMI 1640 supplemented with 5% charcoal-stripped serum and allowed to attach overnight. […] Triplicate transfections were performed using 418 ng reporter vector (2X PRE-Luciferase for PR-A and PR-B, MMTV-Luciferase for MR), 50 ng CMVpRL (normalization vector), 10 ng NHR expression vector (CMX-PR-A, pCDNA-PR-B or 6R-MR), and 0.7 μL lipofectin. […] The final agonist concentration used in the antagonist assays was 1 nM. Following 24 hr incubation, the medium was removed and the cells were lysed in 40 μL of lysis buffer (25 mM Tris Phosphate, 2 mM CDTA, 10% Glycerol, 0.5% Triton X-100, 2 mM DTT). Firefly luciferase activity was measured immediately following the addition of 40 μL luciferase buffer (20 mM tricine, 0.1 mM EDTA, 1.07 mM (MgCO3)4 Mg(OH)2· 5H2O, 2.67 mM MgSO4, 33.3 mM DTT, 270 μM Coenzyme A, 470 μM luciferin, 530 μM ATP).

TamR1 tumors = test: Tamoxifen-resistant MCF7 (TamR1) xenograft efficacy; format: in vivo, mice; conditions: 0.18 mg 60 day E2 pellets; tamoxifen 120 mg/kg/day p.o.; fulvestrant 200 mg/kg 3x/week s.c.; GDC-0810 10, 30 or 100 mg/kg/day p.o.; 27 days
Protocol: We previously generated a tamoxifen-resistant xenograft model, TamR1, by chronically treating MCF7 tumor bearing mice with tamoxifen until a resistant tumor emerged ([Lai et al., 2015]). […] These experiments were conducted in mice with relatively high levels of circulating estradiol, with estradiol being delivered via 0.72 mg 60 day release E2 pellets that are reported by the manufacturer (Innovative Research) to deliver between 300 and 400 pg/ml estradiol. Under these conditions the high E2 reduces the steady state ERα protein levels, thus confounding the readout of ERα protein as a pharmacodynamic endpoint (Figure 5—figure supplement 1). […] These pellets are sufficient to support tumor growth but only modestly reduce ERα levels (Figure 5—figure supplement 1).
Figure 5. […] (A) Tamoxifen-resistant MCF7 tumors were implanted in animals supplemented with 60-day release 0.18 mg 17β-estradiol pellets. […] S.c. is sub-cutaneous dosing, and p.o. is per os (by mouth) oral gavage dosing. * Denotes significance (p<0.05) compared to Vehicle in 1-Way ANOVA and Dunnett's Multiple Comparison Test. Figure 5—figure supplement 1. Effects of estradiol pellet on ERα levels in MCF7-TamR1 xenograft tumors. TamR1 tumor fragments were implanted into Crl:NU-Foxn1^nu mice implanted with either 0.72 or 0.18 mg/60 day 17-β estradiol pellets. Once tumors were established pellets were removed from 1 group. 28 days after pellet removal ERα protein levels were determined for 4 tumors from each group. Data is presented as average compared to Vehicle (-E2). Error is standard deviation. * Denotes significance (p<0.05) compared to Vehicle (-E2) by T-test. [drawing 7] […] (A) ERα protein levels were determined by western blot analysis of tumors 8 hr following the final compound treatment on day 27. […] KI-67 expression, quantified from IHC analysis. […]
The tamoxifen-resistant derivative of the ER+ human tumor cell line, MCF7 (TamR1) was developed by Seragon Pharmaceuticals, Inc ([Lai et al., 2015]). […] The tumors which continued to grow under these conditions were serially passaged and evaluated for continued tamoxifen resistance. […]

SMILES	Emax (PR-A) [%]	Tumor growth response, TamR1 xenograft, lower E2 (TamR1 tumors)
CC/C(=C(\c1ccc(O)cc1)c1ccc(OCCN(C)C)cc1)c1ccccc1 [4-OH Tam, 4-hydroxytamoxifen]	0.04 ± 0.06	
C[C@]12CC[C@@H]3c4ccc(O)cc4C[C@@H](CCCCCCCCC[S+]([O-])CCCC(F)(F)C(F)(F)F)[C@H]3[C@@H]1CC[C@@H]2O (stereo partly shown) [Fulvestrant]		resulted in regression of TamR1 tumors
CC/C(=C(/c1ccc(/C=C/C(=O)O)cc1)c1ccc2[nH]ncc2c1)c1ccc(F)cc1Cl [GDC-0810]	6.68 ± 7.97	induced regression at all doses tested
